From patent publication US20200317660A1, “Quinazolinone Compound and Application Thereof” (LUOXIN PHARMACEUTICAL (SHANGHAI) CO., LTD., priority 2017, published 2020)
Like-named read-outs stand apart in the source and are kept apart here.

Key:
[1] = molecular target: T1, PI3Kα (Homo sapiens, UniProt P42336); assay: In vitro test of enzyme activity (ADP-Glo lipokinase), PI3K alpha; type: biochemical; settings: 40 μM ATP, 50 μM PIP2:3PS, 120 min
T1 construct: purchased Millipore 14-602-K

[2] = molecular target: T2, PI3Kβ (Homo sapiens, UniProt P42338); assay: In vitro test of enzyme activity (ADP-Glo lipokinase), PI3K beta; type: biochemical; settings: 40 μM ATP, 50 μM PIP2:3PS, 120 min
T2 construct: purchased Promega V1751
T2 sequence (P42338 whole entry): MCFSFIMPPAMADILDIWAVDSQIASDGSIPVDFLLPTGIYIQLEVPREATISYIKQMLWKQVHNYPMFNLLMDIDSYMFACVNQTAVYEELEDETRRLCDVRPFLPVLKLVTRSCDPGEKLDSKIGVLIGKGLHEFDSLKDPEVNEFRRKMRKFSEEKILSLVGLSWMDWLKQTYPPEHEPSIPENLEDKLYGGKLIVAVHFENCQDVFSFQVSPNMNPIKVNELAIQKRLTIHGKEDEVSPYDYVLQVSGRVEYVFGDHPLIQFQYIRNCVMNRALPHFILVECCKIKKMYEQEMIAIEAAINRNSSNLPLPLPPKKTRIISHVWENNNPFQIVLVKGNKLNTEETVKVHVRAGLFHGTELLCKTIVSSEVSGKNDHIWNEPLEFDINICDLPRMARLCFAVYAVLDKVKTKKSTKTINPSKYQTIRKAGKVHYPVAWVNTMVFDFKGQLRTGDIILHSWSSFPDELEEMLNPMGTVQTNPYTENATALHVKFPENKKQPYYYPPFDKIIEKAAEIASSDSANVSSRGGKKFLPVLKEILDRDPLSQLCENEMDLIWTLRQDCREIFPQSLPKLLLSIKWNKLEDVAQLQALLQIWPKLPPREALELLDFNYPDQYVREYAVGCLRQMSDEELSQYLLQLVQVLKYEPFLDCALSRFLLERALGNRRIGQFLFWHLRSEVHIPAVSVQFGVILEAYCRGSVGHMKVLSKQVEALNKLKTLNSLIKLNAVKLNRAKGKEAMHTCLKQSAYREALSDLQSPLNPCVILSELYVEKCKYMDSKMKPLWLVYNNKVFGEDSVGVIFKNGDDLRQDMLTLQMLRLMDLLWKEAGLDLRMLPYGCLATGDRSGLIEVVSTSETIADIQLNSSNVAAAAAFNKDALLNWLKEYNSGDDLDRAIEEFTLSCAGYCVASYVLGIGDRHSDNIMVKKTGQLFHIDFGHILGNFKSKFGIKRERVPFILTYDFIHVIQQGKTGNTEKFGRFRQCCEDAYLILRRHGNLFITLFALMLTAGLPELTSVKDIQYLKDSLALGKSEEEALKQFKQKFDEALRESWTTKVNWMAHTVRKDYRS
T2 sequence (P27986 whole entry partner): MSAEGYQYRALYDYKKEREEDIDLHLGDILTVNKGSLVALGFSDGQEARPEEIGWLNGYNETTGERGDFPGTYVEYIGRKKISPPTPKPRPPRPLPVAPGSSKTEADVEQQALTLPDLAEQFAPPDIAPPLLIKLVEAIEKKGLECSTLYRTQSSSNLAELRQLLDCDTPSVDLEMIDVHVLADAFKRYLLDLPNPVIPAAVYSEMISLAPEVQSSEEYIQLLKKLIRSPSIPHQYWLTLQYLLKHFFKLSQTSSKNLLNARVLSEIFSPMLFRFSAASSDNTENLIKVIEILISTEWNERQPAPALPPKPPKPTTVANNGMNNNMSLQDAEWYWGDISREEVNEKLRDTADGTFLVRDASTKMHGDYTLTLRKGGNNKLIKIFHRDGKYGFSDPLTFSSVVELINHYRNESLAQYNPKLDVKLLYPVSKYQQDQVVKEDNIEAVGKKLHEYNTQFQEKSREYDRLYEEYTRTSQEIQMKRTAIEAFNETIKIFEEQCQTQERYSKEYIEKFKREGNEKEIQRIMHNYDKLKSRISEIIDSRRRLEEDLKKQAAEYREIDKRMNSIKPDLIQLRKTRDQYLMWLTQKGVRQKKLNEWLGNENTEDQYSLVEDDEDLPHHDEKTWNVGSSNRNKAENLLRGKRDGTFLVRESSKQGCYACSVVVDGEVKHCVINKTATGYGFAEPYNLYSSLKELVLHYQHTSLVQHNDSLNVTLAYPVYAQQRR

[3] = tested on: phosphorylation of PI3K downstream protein Akt in MCF7 cells; assay: In vitro test of cells activity: ELISA of Akt phosphorylation in MCF7 cells; type: cell-based; settings: 2 h compound, insulin 10 μg/mL stimulation, pAkt ELISA, read-out: MCF7 Cell IC50
Method: 2. In vitro test of cells activity
By the method of ELISA, the inhibition level of the test compound on the phosphorylation of PI3K downstream protein Akt in the signaling pathway was determined in MCF7 cells line to reflect the cells activity of the compound.
Cell culture medium: complete cell culture medium (RPMI 1640+10% serum+1% L-glutamine+1% double antibody)
Serum-free medium (without serum, RPMI 1640+1% L-glutamine+1% double antibody)
The detailed procedures areas follows:
(1) MCF7 cells (ATCC® HTB-22™) were inoculated into a 96-well plate at 100 μL of cell complete medium per well (2.5*10^4 cells per well), and the cells were incubated at 37° C. and 5% CO2 for 24 hours.
(2) The complete cell culture medium was replaced with 100 μL of serum-free medium, and incubated for starvation overnight.
(3) The compound was prepared (The initial concentration of the compound is 1 mM, which was subjected to a three-fold dilution in 10 concentrations, and the compound of each concentration was then diluted 100-fold with serum-free medium). 25 μL of the diluted compound was added to the cells orifice plate.
(4) The cells were incubated at 37° C. and 5% CO2 for 2 hours.
(5) The cells in the well plate were stimulated with 10 μg/mL insulin (Sigma # I9278-5 mL), incubated for 30 minutes, and then centrifuged at 1000 rpm for 5 minutes at room temperature.
(6) 250 μL of 1× balanced salt solution (Invitrogen, #14065-056, 4° C., containing 1 mM/L Na3VO4) was added to each well to wash the cells once.
(7) 100 μL of lysis buffer (trimethylolaminomethane hydrochloride, Invitrogen, #15567-1000 ml) was added to each well, shaken at 4° C. for 60 minutes, and then centrifuged at 4000 rpm for 4 minutes.
(8) The following procedures were carried out according to the instructions of ELISA kit (TGR BioSciences # EKT002).

[4] = tested on: PI3K; settings: literature statement; cited from earlier work
[5] = molecular target: T3, PI3Kδ (Homo sapiens, UniProt O00329); assay: In vitro test of enzyme activity (ADP-Glo lipokinase), PI3K delta; type: biochemical; settings: 40 μM ATP, 50 μM PIP2:3PS, 120 min
T3 construct: purchased Millipore 14-604-K
T3 sequence (O00329 whole entry): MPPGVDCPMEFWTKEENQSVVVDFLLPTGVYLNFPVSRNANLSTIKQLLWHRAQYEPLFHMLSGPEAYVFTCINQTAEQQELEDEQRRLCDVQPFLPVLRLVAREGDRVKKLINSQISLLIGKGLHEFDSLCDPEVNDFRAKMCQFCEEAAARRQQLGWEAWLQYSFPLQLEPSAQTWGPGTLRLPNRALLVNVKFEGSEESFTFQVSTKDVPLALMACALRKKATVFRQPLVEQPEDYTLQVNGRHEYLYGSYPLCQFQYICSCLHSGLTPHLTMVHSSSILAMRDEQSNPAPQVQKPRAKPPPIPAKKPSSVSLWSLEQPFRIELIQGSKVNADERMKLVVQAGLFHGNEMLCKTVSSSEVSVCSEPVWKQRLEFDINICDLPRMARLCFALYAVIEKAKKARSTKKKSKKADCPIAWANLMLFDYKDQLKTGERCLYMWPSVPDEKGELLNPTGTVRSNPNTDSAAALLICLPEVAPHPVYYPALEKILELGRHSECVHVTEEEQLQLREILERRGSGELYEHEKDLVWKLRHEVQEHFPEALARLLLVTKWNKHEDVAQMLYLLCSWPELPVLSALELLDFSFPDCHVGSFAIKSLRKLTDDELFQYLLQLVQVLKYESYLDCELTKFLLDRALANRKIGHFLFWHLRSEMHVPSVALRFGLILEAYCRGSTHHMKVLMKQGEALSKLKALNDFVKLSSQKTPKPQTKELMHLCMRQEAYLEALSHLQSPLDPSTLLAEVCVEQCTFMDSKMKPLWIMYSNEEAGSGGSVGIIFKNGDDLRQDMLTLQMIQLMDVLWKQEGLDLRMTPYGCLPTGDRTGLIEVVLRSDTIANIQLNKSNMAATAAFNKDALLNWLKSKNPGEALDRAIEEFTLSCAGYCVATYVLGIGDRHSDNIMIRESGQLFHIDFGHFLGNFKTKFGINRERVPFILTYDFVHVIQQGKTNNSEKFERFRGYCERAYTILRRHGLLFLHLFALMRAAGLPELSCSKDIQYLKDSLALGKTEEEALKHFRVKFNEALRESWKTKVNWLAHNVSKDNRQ
T3 sequence (P27986 whole entry partner): as the sequence (P27986 whole entry partner) above

[6] = molecular target: T4, PI3Kγ (Homo sapiens, UniProt P48736); assay: In vitro test of enzyme activity (ADP-Glo lipokinase), PI3K gamma; type: biochemical; settings: 25 μM ATP, 50 μM PIP2:3PS, 120 min
T4 construct: purchased Millipore 14-558-K
T4 sequence (P48736 whole entry): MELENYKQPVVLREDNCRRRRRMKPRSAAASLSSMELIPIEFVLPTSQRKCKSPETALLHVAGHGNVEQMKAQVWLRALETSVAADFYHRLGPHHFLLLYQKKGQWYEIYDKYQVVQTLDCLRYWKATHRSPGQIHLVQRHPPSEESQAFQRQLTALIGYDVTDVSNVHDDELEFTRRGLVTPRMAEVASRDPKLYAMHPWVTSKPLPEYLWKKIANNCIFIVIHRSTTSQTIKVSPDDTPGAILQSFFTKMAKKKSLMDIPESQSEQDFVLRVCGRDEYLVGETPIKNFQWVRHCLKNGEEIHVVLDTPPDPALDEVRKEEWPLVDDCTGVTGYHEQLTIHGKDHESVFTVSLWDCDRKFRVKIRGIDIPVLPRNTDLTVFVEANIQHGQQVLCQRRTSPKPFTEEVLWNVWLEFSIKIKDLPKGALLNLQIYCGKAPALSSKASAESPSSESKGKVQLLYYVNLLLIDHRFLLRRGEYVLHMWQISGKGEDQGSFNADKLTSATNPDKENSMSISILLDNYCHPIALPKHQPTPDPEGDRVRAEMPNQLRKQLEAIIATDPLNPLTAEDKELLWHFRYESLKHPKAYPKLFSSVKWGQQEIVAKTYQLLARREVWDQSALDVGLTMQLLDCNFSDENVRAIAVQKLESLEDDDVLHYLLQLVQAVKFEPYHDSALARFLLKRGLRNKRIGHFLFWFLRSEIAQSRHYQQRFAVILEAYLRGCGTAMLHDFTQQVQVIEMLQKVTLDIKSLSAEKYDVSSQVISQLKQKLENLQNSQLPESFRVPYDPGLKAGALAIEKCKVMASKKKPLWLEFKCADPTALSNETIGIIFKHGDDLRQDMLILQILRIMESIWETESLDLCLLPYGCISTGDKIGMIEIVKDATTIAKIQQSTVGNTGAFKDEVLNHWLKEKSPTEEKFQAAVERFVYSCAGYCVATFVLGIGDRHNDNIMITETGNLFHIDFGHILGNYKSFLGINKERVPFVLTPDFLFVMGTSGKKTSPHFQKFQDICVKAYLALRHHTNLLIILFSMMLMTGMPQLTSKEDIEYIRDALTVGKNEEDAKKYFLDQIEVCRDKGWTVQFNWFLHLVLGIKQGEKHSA

[7] = In vivo DMPK study in mice after a single administration; design: species or system female Balb/c mice; settings: oral, 10 mpk
Method: Experimental objective: female Balb/c mice were used as the test animals, and the blood concentration of the compound was determined and the pharmacokinetic behavior was evaluated after a single administration.
Experimental operation: 12 healthy adult female Balb/c mice were selected, 6 for intravenous injection group and 6 for oral administration group. The compound to be tested was mixed with an appropriate amount of intravenous injection group vehicle (10% HP-betaCD: 10% solutol=1:1, pH=8), vortex-mixed and sonicated to prepare a 1.0 mg/mL clear solution, followed by filtration for subsequent use; the vehicle in the oral group was 0.5% MC/0.2% Tw80. After the test compound and the vehicle were mixed, it was vortex-mixed and sonicated to prepare a 1.0 mg/mL homogeneous suspension for subsequent use. After an intravenous administration at a dose of 1 mg/kg or an oral administration at the dose of 2 mg/kg and 10 mg/kg, whole blood of the mice was collected for a certain period of time to prepare plasma. The drug concentration was analyzed by LC-MS/MS method, and Phoenix WinNonlin software was used (Pharsight, USA) to calculate the pharmacokinetic parameters.
Cmax: the highest concentration of the drug in the body; F %: oral bioavailability; Oral DNAUC: area under the dose normalization curve; Vd: apparent volume of distribution; Cl: clearance rate; T1/2: half-life.

[8] = tested on: human breast cancer BT-474 cells; assay: Subcutaneous xenograft tumor model of human breast cancer BT-474 cells; type: in vivo, BALB/c nude mouse; settings: BT-474 xenograft, 30 mpk
Method: 2. In vivo drug-efficacy study
(1) BALB/c nude mouse subcutaneous xenograft tumor model of human breast cancer BT-474 cells
Human breast cancer BT-474 cells (ATCC, Manassas, Va., batch number: HTB-20) were subjected to in vitro monolayer culture, and the culture conditions were: Hybri-Care medium with 10% fetal bovine serum and 1% double antibody, 37° C. and 5% CO2 incubator. The cells were passaged by digestion with trypsin-EDTA twice a week. When the cells saturation reached 80-90%, and the quantity met the requirement, the cells was collected, counted and inoculated.
Tumor cell inoculation (tumor inoculation)
The subcutaneous implantation of the estrogen tablets (Innovative Research, Cat # SE-121, 0.36 mg/60-day release) was carried out one day before cell inoculation. 0.2 mL […] of BT-474 cells (with matrigel, volume 1:1) was subcutaneously inoculated into the right back of each mouse. When the average tumor volume reached 188 mm^3, the administration was started in groups.
Preparation of Test Substance […]
The experimental index was to evaluate whether the tumor growth was inhibited, delayed or cured. The diameter of the tumor was measured with a vernier caliper twice a week. […]
The antitumor efficacy of the compound was evaluated by TGI (%) or relative tumor proliferation rate T/C (%). […]

T1 sequence (P42336 whole entry): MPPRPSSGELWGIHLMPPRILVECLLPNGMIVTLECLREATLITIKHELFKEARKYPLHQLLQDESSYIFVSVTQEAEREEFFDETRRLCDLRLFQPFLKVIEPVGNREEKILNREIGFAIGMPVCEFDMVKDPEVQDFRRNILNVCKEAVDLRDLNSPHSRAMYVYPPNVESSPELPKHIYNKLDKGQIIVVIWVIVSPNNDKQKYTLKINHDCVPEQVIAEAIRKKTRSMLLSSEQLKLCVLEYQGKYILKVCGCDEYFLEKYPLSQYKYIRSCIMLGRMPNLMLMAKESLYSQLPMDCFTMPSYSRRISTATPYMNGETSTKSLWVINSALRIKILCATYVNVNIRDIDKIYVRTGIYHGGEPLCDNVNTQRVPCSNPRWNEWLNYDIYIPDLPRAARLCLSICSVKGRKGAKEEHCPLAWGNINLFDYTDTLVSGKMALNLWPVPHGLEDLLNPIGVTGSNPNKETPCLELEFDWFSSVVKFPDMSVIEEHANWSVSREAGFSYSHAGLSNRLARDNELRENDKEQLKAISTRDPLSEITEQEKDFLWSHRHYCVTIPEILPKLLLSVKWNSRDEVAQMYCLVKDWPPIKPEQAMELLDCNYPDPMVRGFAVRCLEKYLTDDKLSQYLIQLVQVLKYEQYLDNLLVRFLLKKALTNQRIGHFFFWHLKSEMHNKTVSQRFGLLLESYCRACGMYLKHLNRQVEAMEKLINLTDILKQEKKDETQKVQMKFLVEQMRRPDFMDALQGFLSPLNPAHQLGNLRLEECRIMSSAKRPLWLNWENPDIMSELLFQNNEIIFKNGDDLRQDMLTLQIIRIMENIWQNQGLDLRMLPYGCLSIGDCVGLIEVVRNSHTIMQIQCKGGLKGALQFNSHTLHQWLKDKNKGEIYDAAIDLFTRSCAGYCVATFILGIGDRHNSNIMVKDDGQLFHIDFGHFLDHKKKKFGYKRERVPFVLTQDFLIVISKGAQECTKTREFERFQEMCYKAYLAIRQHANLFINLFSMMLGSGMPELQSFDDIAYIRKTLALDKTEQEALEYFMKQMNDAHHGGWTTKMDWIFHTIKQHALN
T1 sequence (P27986 whole entry partner): as the sequence (P27986 whole entry partner) above

CCN(CC)CCn1cnc2ccc(-c3cnc(OC)c(NS(=O)(=O)c4ccc(F)cc4F)c3)cc2c1=O [R012, reference compound]
IC50 [1]: 13.9 nM | IC50 [2]: 67.9 nM | IC50 ([3]; Homo sapiens, MCF7, 2 h): > 1000 nM | inhibitory effect on PI3K [4]: good inhibitory effect

CNC(=O)C(C)Cn1cnc2ccc(-c3cnc(OC)c(NS(=O)(=O)c4cc(C)ccc4Cl)c3)cc2c1=O (single isomer, unassigned) [WX214]
IC50 [1]: 2.22 nM | IC50 [2]: 278 nM | IC50 [5]: 18.8 nM | IC50 [6]: 31.4 nM | IC50 [3]: 17.2 nM | Cmax [7]: 8.41 µM | Oral DNAUC (area under the dose normalization curve) [7]: 734 nM · h/mpk

COc1ncc(-c2ccc3ncn(CCN(C)C)c(=O)c3c2)cc1NS(=O)(=O)c1ccc(F)cc1 [R011, reference compound]
IC50 [1]: 74.5 nM | IC50 [2]: 168 nM | IC50 ([3]; Homo sapiens, MCF7, 2 h): 230 nM | inhibitory effect on PI3K [4]: good inhibitory effect

CNC(=O)C(C)Cn1cnc2ccc(-c3cnc(OC)c(NS(=O)(=O)c4cc(Cl)ccc4C)c3)cc2c1=O (single isomer, unassigned) [WX222]
IC50 [1]: 1.8 nM | IC50 [2]: 361 nM | IC50 [5]: 20.7 nM | IC50 [6]: 29.7 nM | IC50 [3]: 12.6 nM | Cmax [7]: 6.88 µM | Oral DNAUC (area under the dose normalization curve) [7]: 1300 nM · h/mpk

COc1ncc(-c2ccc3ncn(CC(C)C(=O)NCC(F)(F)F)c(=O)c3c2)cc1NS(=O)(=O)c1ccc(F)cc1Cl (single isomer, unassigned) [WX058]
IC50 [1]: 5.49 nM | IC50 [2]: 589 nM | IC50 [5]: 18.7 nM | IC50 [6]: 54.2 nM | IC50 [3]: 56.1 nM | TGI % [8]: 60.0%
